# Test results: patent US20240216325A1, “NUCLEAR FACTOR KAPPA B PATHWAY INHIBITION TO ARREST CALCIFIC AORTIC STENOSIS” (CORNELL UNIVERSITY, priority 2019, published 2024)
# Columns and labels:
# [1] = system: LDLR−/− mice, a CAVD mouse model; assay: Echocardiography (pulsed-wave Doppler) of heart valve function in CAVD mouse model; assay type: in vivo
# Method: Animals. Mouse experiments were performed according to the guidelines of the National Institute of Health and the protocols approved by the Institutional Animal Care and Use Committee of Cornell University. The mice used were LDLR (low-density lipoprotein receptor)-/- mice from Jackson Labs (No. 2270). Mice were fed a high-fat diet (Harlan Teklad No. TD88137, 42% of calories from fat, 0.25% cholesterol). Age-matched C57BL6J mice were obtained from Jackson Laboratories (Bar Harbour, ME) for control study. Drug administration. The NFκB pathway was intervened by administering either BAY11-7082 (injected intraperitoneal 3 times per week at 5 mg/kg) or tetrahydrobiopterin (BH4) (oral gavage at 10 mg/kg/day) to LDLR/mice, for 8 weeks after giving them high fat diet for 20 weeks Echocardiography. Transthoracic echocardiography was performed under 2% isofluorane anaesthesia, with M[…] and MS5[…] probes connected to a Vevo 2100 system (VisualSonics). Heart valve function was assessed at 6 months and 8 months of age using according to established procedures. Mice were anesthetized using inhaled 2% isoflurane. Abdominal hair was removed using a chemical depilatory cream, and warmed ultrasound transmission gel was applied to the anterior thorax. Probes were applied in the long-axis and short-axis position to the chest. Transvalvular velocity and pressure gradients were captured using the pulsed-wave Doppler mode and manual tracing of >3 velocity time intervals on the resulting plots. In this work, the NFkB pathway was intervened by administering either BAY11-7082 (injected intraperitoneal 3 times per week at 5 mg/kg) or tetrahydrobiopterin (BH4) (oral gavage at 10 mg/kg/day) to LDLR^-/- mice, a CAVD mouse model, for another 8 weeks after starting them on high fat diet for 20 weeks (FIGS. 17A-17C). Cardiac hemodynamic parameters, such as aortic valve peak velocity and left ventricle ejection fraction, were measured using doppler ultrasound before and after BAYT 1-7082 and BH4 administration. […]
# [2] = system: LDLR−/− mice, a CAVD mouse model; assay: Alizarin red staining for calcium contents on the aortic valves; assay type: in vivo; conditions: 8 weeks treatment after 20 weeks high fat diet
# Method: Animals. Mouse experiments were performed according to the guidelines of the National Institute of Health and the protocols approved by the Institutional Animal Care and Use Committee of Cornell University. The mice used were LDLR (low-density lipoprotein receptor)−/− mice from Jackson Labs (No. 2270). Mice were fed a high-fat diet (Harlan Teklad No. TD88137, 42% of calories from fat, 0.25% cholesterol). Age-matched C57BL6J mice were obtained from Jackson Laboratories (Bar Harbour, ME) for control study. Drug administration. The NFκB pathway was intervened by administering either BAY11-7082 (injected intraperitoneal 3 times per week at 5 mg/kg) or tetrahydrobiopterin (BH4) (oral gavage at 10 mg/kg/day) to LDLR/mice, for 8 weeks after giving them high fat diet for 20 weeks Tissue staining and immunohistochemistry. Mouse hearts were isolated, perfused, fixed, embedded in paraffin, sectioned, and mounted. Alizarin red staining (ARS). Sections were deparaffinized and incubated in ARS stain for 5 minutes (1% Alizarin red in water, pH 4.2 adjusted by using 10% ammonium hydroxide in water). Sections were incubated in acetone for 30 seconds and then rinsed with a 1:1 solution of acetone and xylene. […] Cardiac hemodynamic parameters, such as aortic valve peak velocity and left ventricle ejection fraction, were measured using doppler ultrasound before and after BAYT 1-7082 and BH4 administration. […]
# [3] = system: LDLR−/− mice, a CAVD mouse model; assay: Fibro-osteogenic gene profiling (Q-PCR) on aortic valve tissues; assay type: in vivo; conditions: 8 weeks treatment after 20 weeks high fat diet
# Method: Animals. Mouse experiments were performed according to the guidelines of the National Institute of Health and the protocols approved by the Institutional Animal Care and Use Committee of Cornell University. The mice used were LDLR (low-density lipoprotein receptor)−/− mice from Jackson Labs (No. 2270). Mice were fed a high-fat diet (Harlan Teklad No. TD88137, 42% of calories from fat, 0.25% cholesterol). Age-matched C57BL6J mice were obtained from Jackson Laboratories (Bar Harbour, ME) for control study. Drug administration. The NFκB pathway was intervened by administering either BAY11-7082 (injected intraperitoneal 3 times per week at 5 mg/kg) or tetrahydrobiopterin (BH4) (oral gavage at 10 mg/kg/day) to LDLR/mice, for 8 weeks after giving them high fat diet for 20 weeks Q-PCR analysis. Mouse Aortic valve samples were homogenized, total RNA was isolated using Takarabio RNA, purified and further quantified via Nanodrop. […] Quantitative RT-PCR was performed on all samples using SYBR Green PCR master mix (Applied Biosystems, Foster City, CA) and a CFX96 or MiniOpticon Real-Time PCR Detection System (Bio-Rad, Hercules, CA). […] Cardiac hemodynamic parameters, such as aortic valve peak velocity and left ventricle ejection fraction, were measured using doppler ultrasound before and after BAYT 1-7082 and BH4 administration. […]
# [4] = system: NFκB canonical signaling activity; conditions: acute cardiovascular injury, literature; cited from earlier work
# Porcine aortic VEC = assay: VEC on 3D collagen hydrogels, calcification by Alizarin Red S staining and dye extraction; assay type: cell-based; conditions: OGM+TNFα 30 ng/mL, 14 days
# Description: Primary Aortic Valve Cell Isolation and Culture. Porcine valves are a widely used analog for human adult valve endothelial and interstitial cells. Unlike mice, pigs develop atherosclerosis and valvular lesions without intervention, similar to humans. Large-scale culture of porcine valve cell populations is feasible due to ample tissue size/cell dissociation yields. […] Only VEC cultures with consistent CD31 and VE-cadherin (vascular endothelial cadherin) expression, cobblestone morphology, and nondetectable αSMA (alphasmooth muscle actin) expression were used. αSMA levels were measured via RT-PCR (>37 cycle threshold), Western blot, and immunofluorescence.
# All reagents were obtained from Sigma Aldrich, St. Louis, MO, unless otherwise noted. […]
# Hydrogel Calcification Analysis. To quantify calcified matrix developed in different experimental conditions, an Alizarin Red absorbance assay was implemented. […] The concentration of dye in solution was then quantified using absorbance spectroscopy at 405-nm wavelength. Samples absorbance readings were normalized to basal growth medium culture condition.
# NFκB p65 = assay: p65 nuclear localization in VEC on 3D hydrogels (immunofluorescence); assay type: cell-based, porcine; conditions: 48 hour, OGM alone insufficient
# Method: White arrows indicate cells with nuclear-positive signal. Scale bar is 20 μm. […] Asterisks indicate statistically significant groups (*: p<0.05).
# 3D Hydrogel Culture Model Preparation. Cellularized type II collagen hydrogels were prepared as previously described (Butcher et al., “Valvular Endothelial Cells Regulate the Phenotype of Interstitial Cells in Co-Culture: Effects of Steady Shear Stress,” Tissue Eng. 12:905-915 (2006), which is hereby incorporated by reference in its entirety)). Briefly, porcine aortic valve endothelial cells were topically seeded at 50,000 cell/cm^2 density, whereas porcine aortic valve interstitial cells were encapsulated within the neutralized collagen gel suspension (2 mg/mL) at 1,000,000 cells/mL density. Constructs were allowed to gel for 1 hour at 37° C., 5% CO2, and then cultured overnight in their respective basal-medium conditions. For osteogenic differentiation conditions, basal-medium was supplemented with 10 mmol/L β-glycerophosphate, 50 μg/mL 1-ascorbic acid, and 100 nM dexamethasone, as previously described (Richards et al., “Side-Specific Endothelial-Dependent Regulation of Aortic Valve Calcification: Interplay of Hemodynamics and Nitric Oxide Signaling,” Am J Pathol. 182:1922-1931 (2013), which is hereby incorporated by reference in its entirety). […]
# [5] = system: valve endothelial cells (VEC); assay: EndMT in VEC: VE-cadherin, αSMA, SNAI1 by RT-PCR and immunofluorescence; assay type: cell-based, porcine; conditions: GM+TNFα 30 ng/mL, 48 h
# Method: Scale bar is 20 μm. […] Scale bar is […]. […] Arrows indicate cells coexpressing CD31 and αSMA. Scale bar is 100 μm. […] Asterisks indicate β-gal-positive cells in interstitial space. Scale bar is […]. CTL indicates control; GM, basal growth medium; and LDLR, low-density lipoprotein receptor.
# 3D Hydrogel Culture Model Preparation. Cellularized type II collagen hydrogels were prepared as previously described (Butcher et al., “Valvular Endothelial Cells Regulate the Phenotype of Interstitial Cells in Co-Culture: Effects of Steady Shear Stress,” Tissue Eng. 12:905-915 (2006), which is hereby incorporated by reference in its entirety)). Briefly, porcine aortic valve endothelial cells were topically seeded at 50,000 cell/cm^2 density, whereas porcine aortic valve interstitial cells were encapsulated within the neutralized collagen gel suspension (2 mg/mL) at 1,000,000 cells/mL density. Constructs were allowed to gel for 1 hour at 37° C., 5% CO2, and then cultured overnight in their respective basal-medium conditions. For osteogenic differentiation conditions, basal-medium was supplemented with 10 mmol/L β-glycerophosphate, 50 μg/mL 1-ascorbic acid, and 100 nM dexamethasone, as previously described (Richards et al., “Side-Specific Endothelial-Dependent Regulation of Aortic Valve Calcification: Interplay of Hemodynamics and Nitric Oxide Signaling,” Am J Pathol. 182:1922-1931 (2013), which is hereby incorporated by reference in its entirety). For exogenous TNFα administration, recombinant human TNFα was added to appropriate media condition before administration at 30 ng/mL.
# Quantitative Real-Time Polymerase Chain Reaction. Total RNA was extracted using a RNeasy total RNA purification kit (Qiagen, Valencia, CA), and RNA was reverse transcribed to cDNA using the iScript cDNA synthesis kit (Bio-Rad, Hercules, CA). Quantitative RT-PCR was performed on all samples using SYBR Green PCR master mix (Applied Biosystems, Foster City, CA) and a CFX96 or MiniOpticon Real-Time PCR Detection System (Bio-Rad, Hercules, CA). Samples amplifying at >37 cycles were considered nondetectable.
# For in vitro cultures, intact collagen gels were rinsed twice in PBS and fixed in 4% paraformaldehyde for 1 hour at 25° C. Samples were rinsed 3× on a rocker with PBS for 15 minutes each, permeabilized with 0.2% Triton-X (VWR International, West Chester, PA) for 10 minutes on rocker, and blocked in 10% goat serum for 1 hour at 25° C.
# RANKL = target: T1, RANKL (Mus musculus, UniProt O35235); conditions: literature (Weiss et al. 2013); cited from earlier work
# T1 construct: host or cells: hypercholesterolemic mice (in vivo, endogenous protein)
# T1 sequence (O35235 1-316): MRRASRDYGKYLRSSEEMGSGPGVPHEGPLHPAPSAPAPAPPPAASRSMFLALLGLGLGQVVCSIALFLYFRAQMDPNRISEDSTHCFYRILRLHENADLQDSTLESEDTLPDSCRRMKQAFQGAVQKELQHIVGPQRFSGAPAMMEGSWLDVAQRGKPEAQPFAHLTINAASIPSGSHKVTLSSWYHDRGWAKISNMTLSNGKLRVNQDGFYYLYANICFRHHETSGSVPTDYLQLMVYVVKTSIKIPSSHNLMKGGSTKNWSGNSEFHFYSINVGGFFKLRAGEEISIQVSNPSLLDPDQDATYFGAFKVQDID
# [6] = LDLR−/− mice on high fat diet, treatment from 6 months, read at 8 months, vs control LDLR−/− given 10% DMSO/PBS
molecule,measurement,setting,value
Cc1ccc(S(=O)(=O)/C=C/C#N)cc1 [BAY11-7082],aortic valve peak velocity,[1]; [6],lessened increase
same,ejection fraction velocity ratio (EFVR),[1]; [6],lessened
same,hemodynamic effect by sex,"[1]; female vs male LDLR−/− mice, 8 weeks treatment",significantly affected both female and male mice
same,calcium deposition on the aortic valves (Alizarin red staining),[2],less calcium deposition
same,collagen type 1A (Col1A) mRNA expression in aortic valve tissue,[3],significantly decreased
same,intercellular adhesion molecule 1 (ICAM1) mRNA expression in aortic valve tissue,[3],significantly decreased
same,treatment of septic shock or ischemic reperfusion injury,[4],effective
TNFα,calcium deposition (ARS),Porcine aortic VEC,significantly increased
same,p65 nuclear localization,NFκB p65,required to induce p65 nuclear localization
same,EndMT induction,[5],induced EndMT
same,SNAI1 gene expression,[5],significantly increased
same,VE-cadherin gene expression (CDH5),[5],reduction in gene expression
same,αSMA expression,[5],increased
osteoprotegerin: decoy receptor for RANKL,CAVD calcification,RANKL,mitigates CAVD calcification
